Target: T1, Nanoluciferase-BRD9 fusion protein (3×FLAG-NLuc-BRD9) in SYO-1 cells (Homo sapiens, UniProt Q9H8M2)
T1 construct: expressed in transfected cells; host or cells: SYO-1
T1 sequence (Q9H8M2 1-597): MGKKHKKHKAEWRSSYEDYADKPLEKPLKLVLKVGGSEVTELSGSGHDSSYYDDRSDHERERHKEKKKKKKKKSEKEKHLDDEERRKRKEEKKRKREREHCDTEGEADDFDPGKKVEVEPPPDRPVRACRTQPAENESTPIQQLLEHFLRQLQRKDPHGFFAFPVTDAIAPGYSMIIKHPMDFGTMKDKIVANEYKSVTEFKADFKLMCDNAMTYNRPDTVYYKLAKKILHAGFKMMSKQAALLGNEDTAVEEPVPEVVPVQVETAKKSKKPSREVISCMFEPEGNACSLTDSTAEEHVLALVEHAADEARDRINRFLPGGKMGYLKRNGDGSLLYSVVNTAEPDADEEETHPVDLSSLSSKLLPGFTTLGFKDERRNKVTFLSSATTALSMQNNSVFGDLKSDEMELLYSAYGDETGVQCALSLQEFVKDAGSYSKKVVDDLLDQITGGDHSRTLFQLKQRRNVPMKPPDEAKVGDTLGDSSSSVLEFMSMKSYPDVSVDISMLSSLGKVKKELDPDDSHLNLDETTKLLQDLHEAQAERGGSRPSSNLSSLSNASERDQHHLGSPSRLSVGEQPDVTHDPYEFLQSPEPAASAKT
Assay: SYO1 BRD9 NanoLuc Degradation Assay
Assay type: cell-based
Details: Table 6B; SYO-1 cells expressing 3×FLAG-NLuc-BRD9, 6 hours incubation, 1 μM top dose; read-out: SYO1 BRD9-NanoLuc degradation IC50
Procedure: Procedure: A stable SYO-1 cell line expressing 3×FLAG-NLuc-BRD9 was generated. On day 0 cells were seeded in 30 μL media into each well of 384-well cell culture plates. The seeding density was 8000 cells/well. On day 1, cells were treated with 30 nL DMSO or 30 nL of 3-fold serially DMSO-diluted compounds (10 points in duplicates with 1 μM as final top dose). Subsequently plates were incubated for 6 hours in a standard tissue culture incubator and equilibrated at room temperature for 15 minutes. Nanoluciferase activity was measured by adding 15 μL of freshly prepared Nano-Glo Luciferase Assay Reagent (Promega N1130), shaking the plates for 10 minutes and reading the bioluminescence using an EnVision reader.
Results: The Inhibition % was calculated using the following formula: % Inhibition=100×(LumHC−Lumsample)/(LumHC−LumLC). DMSO treated cells are employed as High Control (HC) and 1 μM of a known BRD9 degrader standard treated cells are employed as Low Control (LC).

Row | Compound | DC50
1 | CCN(CC)c1cc2c(-c3cc(OC)c(CN4CCN(CCC5CCN(c6ccc7c(c6)C(=O)N(C6CCC(=O)NC6=O)C7=O)CC5)CC4)c(OC)c3)cn(C)c(=O)c2cn1 (stereo not drawn) [Compound D115] | < 10 nM
2 | COc1cc(-c2cn(C)c(=O)c3cnc(N4CCC4)cc23)cc(OC)c1CN1CC(CN2CCC3(CC2)CN(c2ccc4c(c2)C(=O)N(C2CCC(=O)NC2=O)C4=O)C3)C1 (stereo not drawn) [Compound D116] | < 10 nM
3 | COc1cc(-c2cn(C)c(=O)c3cnc(N(C)C)cc23)cc(OC)c1CN1CCC(CCCN2CCN(C3CCC(=O)NC3=O)C(=O)C2)CC1 (stereo not drawn) [Compound D117] | 10 to 100 nM
4 | COc1cc(-c2cn(C)c(=O)c3cnc(N(C)C)cc23)cc(OC)c1CN1CCC(C(=O)N2CCC3(CC2)CC(Oc2cc4c(cc2F)C(=O)N(C2CCC(=O)NC2=O)C4=O)C3)CC1 (stereo not drawn) [Compound D118] | < 10 nM
5 | CN(C)c1cc2c(-c3cc(Cl)c(CN4CCC(CN5CCC6(CC5)CC(Oc5ccc7c(c5)C(=O)N(C5CCC(=O)NC5=O)C7=O)C6)CC4)c(Cl)c3)cn(C)c(=O)c2cn1 (stereo not drawn) [Compound D119] | 10 to 100 nM
6 | COc1cc(-c2cn(C)c(=O)c3cnc(N(C)C)cc23)cc(OC)c1CN1CCN(CCC2CCN(c3ccc4c(c3)C(=O)N(C3CCC(=O)NC3=O)C4)CC2)CC1 (stereo not drawn) [Compound D120] | < 10 nM
7 | COc1cc(-c2cn(C)c(=O)c3cnc(N(C)C)cc23)cc(OC)c1CN1CCN(CCC2CCN(c3ccc4c(c3)CN(C3CCC(=O)NC3=O)C4=O)CC2)CC1 (stereo not drawn) [Compound D121] | < 10 nM
8 | COc1cc(-c2cn(C3CC3)c(=O)c3cnc(N4CCC4)cc23)cc(OC)c1CN1CCC(N2CCN(c3ccc4c(c3)CN(C3CCC(=O)NC3=O)C4=O)CC2)CC1 (stereo not drawn) [Compound D122] | < 10 nM
9 | CCn1cc(-c2cc(OC)c(CN3CCC(N4CCN(c5ccc6c(c5)CN(C5CCC(=O)NC5=O)C6=O)CC4)CC3)c(OC)c2)c2cc(N3CCC3)ncc2c1=O (stereo not drawn) [Compound D123] | < 10 nM
10 | CCN(C)c1cc2c(-c3cc(OC)c(CN4CCN(CCC5CCN(c6ccc7c(c6)C(=O)N(C6CCC(=O)NC6=O)C7=O)CC5)CC4)c(OC)c3)cn(C)c(=O)c2cn1 (stereo not drawn) [Compound D124] | < 10 nM
11 | COc1cc(-c2cn(C)c(=O)c3cnc(N(C)C)cc23)cc(OC)c1CN1CCC(CN2CCC3(CC2)CN(c2ccc4c(c2)C(=O)N(C2CCC(=O)NC2=O)C4=O)C3)CC1 (stereo not drawn) [Compound D125] | < 10 nM
12 | COc1cc(-c2cn(C)c(=O)c3cnc(N4CCC4)cc23)cc(OC)c1CN1CCC2(CC1)CN(c1ccc3c(c1)C(=O)N(C1CCC(=O)NC1=O)C3=O)C2 (stereo not drawn) [Compound D126] | < 10 nM
13 | COc1cc(-c2cn(C)c(=O)c3cnc(N(C)C)cc23)cc(OC)c1CN1CCC2(CC1)CN(c1ccc3c(c1)CN(C1CCC(=O)NC1=O)C3=O)C2 (stereo not drawn) [Compound D127] | < 10 nM
14 | COc1cc(-c2cn(C)c(=O)c3cnc(N(C)C)cc23)cc(OC)c1CN1CCC2(CC1)CN(c1ccc3c(c1)C(=O)N(C1CCC(=O)NC1=O)C3)C2 (stereo not drawn) [Compound D128] | < 10 nM
15 | COc1cc(-c2cn(C)c(=O)c3cnc(N(C)C)cc23)cc(OC)c1CN1CCC(CN2CCC3(CC2)CC(Oc2cc4c(cc2F)C(=O)N(C2CCC(=O)NC2=O)C4=O)C3)CC1 (stereo not drawn) [Compound D129] | < 10 nM
16 | COc1cc(-c2cn(C)c(=O)c3cnc(N(C)C)cc23)cc(OC)c1CN1CCC(CN2CCC3(CC2)CC(Oc2ccc4c(c2)C(=O)N(C2CCC(=O)NC2=O)C4=O)C3)C(OC)C1 (stereo not drawn) [Compound D130] | < 10 nM
17 | COc1cc(-c2cn(C)c(=O)c3cnc(N4CCC4)cc23)cc(OC)c1CN1CCC(N2CCN(c3ccc4c(c3)CN(C3CCC(=O)NC3=O)C4=O)CC2)CC1 (stereo not drawn) [Compound D131] | < 10 nM
18 | COc1cc(-c2cn(C)c(=O)c3cnc(N(C)C)cc23)cc(OC)c1CN1CC(c2ccc3c(c2)C(=O)N(C2CCC(=O)NC2=O)C3=O)C1 (stereo not drawn) [Compound D132] | < 10 nM
19 | COc1cc(-c2cn(C)c(=O)c3cnc(N(C)C)cc23)cc(OC)c1CC1CCN(c2ccc3c(c2)C(=O)N(C2CCC(=O)NC2=O)C3=O)CC1 (stereo not drawn) [Compound D133] | < 10 nM
20 | C=CCn1cc(-c2cc(OC)c(CN3CCN(CCC4CCN(c5ccc6c(c5)C(=O)N(C5CCC(=O)NC5=O)C6=O)CC4)CC3)c(OC)c2)c2cc(N(C)C)ncc2c1=O (stereo not drawn) [Compound D134] | < 10 nM
21 | C=CCCn1cc(-c2cc(OC)c(CN3CCN(CCC4CCN(c5ccc6c(c5)C(=O)N(C5CCC(=O)NC5=O)C6=O)CC4)CC3)c(OC)c2)c2cc(N(C)C)ncc2c1=O (stereo not drawn) [Compound D135] | < 10 nM

Row | Compound | DC50
22 | COc1cc(-c2cn(C)c(=O)c3cnc(N4CCC4)cc23)cc(OC)c1CN1CCC(CN2CCC3(CC2)CN(c2ccc4c(c2)C(=O)N(C2CCC(=O)NC2=O)C4=O)C3)CC1 (stereo not drawn) [Compound D136] | < 10 nM
23 | COc1cc(-c2cn(C)c(=O)c3cnc(N4CCC4)cc23)cc(OC)c1CN1CC(Oc2ccc3c(c2)C(=O)N(C2CCC(=O)NC2=O)C3=O)C1 (stereo not drawn) [Compound D137] | < 10 nM
24 | COc1cc(-c2cn(C)c(=O)c3cnc(N(C)C)cc23)cc(OC)c1CN1CC(Oc2ccn3c(=O)n(C4CCC(=O)NC4=O)nc3c2)C1 (stereo not drawn) [Compound D138] | < 10 nM
25 | C/C=C/n1cc(-c2cc(OC)c(CN3CCN(CCC4CCN(c5ccc6c(c5)C(=O)N(C5CCC(=O)NC5=O)C6=O)CC4)CC3)c(OC)c2)c2cc(N(C)C)ncc2c1=O (stereo not drawn) [Compound D139] | < 10 nM
26 | CCc1cc(-c2cn(C)c(=O)c3cnc(N(C)C)cc23)cc(Cl)c1CN1CCC(CN2CCC3(CC2)CC(Oc2ccc4c(c2)C(=O)N(C2CCC(=O)NC2=O)C4=O)C3)CC1 (stereo not drawn) [Compound D140] | < 10 nM
27 | COc1cc(-c2cn(C)c(=O)c3cnc(N4CCOCC4)cc23)cc(OC)c1CN1CCN(c2ccc3c(c2)C(=O)N(C2CCC(=O)NC2=O)C3=O)CC1 (stereo not drawn) [Compound D141] | < 10 nM
28 | COc1cc(-c2cn(C)c(=O)c3cnc(N4CCC4)cc23)cc(OC)c1CN1CCC2(CC1)CN(c1ccc3c(c1)C(=O)N(C1CCC(=O)NC1=O)C3)C2 (stereo not drawn) [Compound D142] | < 10 nM
29 | COc1cc(-c2cn(C)c(=O)c3cnc(N(C)C)cc23)cc(OC)c1CN1CC(CN2CCC3(CC2)CN(c2ccc4c(c2)CN(C2CCC(=O)NC2=O)C4=O)C3)C1 (stereo not drawn) [Compound D143] | < 10 nM
30 | COc1cc(-c2cn(C)c(=O)c3cnc(N4CCOCC4)cc23)cc(OC)c1CN1CC(Oc2ccn3c(=O)n(C4CCC(=O)NC4=O)nc3c2)C1 (stereo not drawn) [Compound D144] | < 10 nM
31 | COc1cc(-c2cn(C)c(=O)c3cnc(N(C)C)cc23)c(OC)cc1CN1CCN(CCC2CCN(c3ccc4c(c3)C(=O)N(C3CCC(=O)NC3=O)C4=O)CC2)CC1 (stereo not drawn) [Compound D145] | < 10 nM
32 | COc1cc(-c2cn(C)c(=O)c3cnc(N4CCC4)cc23)cc(OC)c1CN1CC(c2ccc3c(c2)C(=O)N(C2CCC(=O)NC2=O)C3=O)C1 (stereo not drawn) [Compound D146] | < 10 nM
33 | COc1cc(-c2cn(C)c(=O)c3cnc(N4CCOCC4)cc23)c(OC)cc1CN1CC(CN2CCC3(CC2)CN(c2ccc4c(c2)C(=O)N(C2CCC(=O)NC2=O)C4)C3)C1 (stereo not drawn) [Compound D147] | < 10 nM
34 | COc1cc(-c2cn(C)c(=O)c3cnc(N4CCC4)cc23)ccc1CN1CCC2(CC1)CN(c1ccc3c(c1)CN(C1CCC(=O)NC1=O)C3=O)C2 (stereo not drawn) [Compound D148] | < 10 nM
35 | COc1cc(-c2cn(C)c(=O)c3cnc(N4CCC4)cc23)ccc1CN1CCC2(CC1)CN(c1ccc3c(c1)C(=O)N(C1CCC(=O)NC1=O)C3)C2 (stereo not drawn) [Compound D149] | < 10 nM
36 | COc1cc(-c2cn(C)c(=O)c3cnc(N4CCC4)cc23)cc(OC)c1CN1CCC(c2ccc3c(c2)C(=O)N(C2CCC(=O)NC2=O)C3=O)CC1C(F)(F)F (stereo not drawn) [Compound D150] | < 10 nM
37 | C/C=C/Cn1cc(-c2cc(OC)c(CN3CCN(CCC4CCN(c5ccc6c(c5)C(=O)N(C5CCC(=O)NC5=O)C6=O)CC4)CC3)c(OC)c2)c2cc(N(C)C)ncc2c1=O (stereo not drawn) [Compound D151] | < 10 nM
38 | COc1cc(-c2cn(C)c(=O)c3cnc(N(C)C)cc23)cc(OC)c1CN1CC(CN2CCC3(CC2)CN(c2ccc4c(c2)C(=O)N(C2CCC(=O)NC2=O)C4)C3)C1 (stereo not drawn) [Compound D152] | < 10 nM
39 | COc1cc(-c2cn(C)c(=O)c3cnc(N4CCC4)cc23)cc(OC)c1CN1CC(CN2CCC3(CC2)CN(c2ccc4c(c2)CN(C2CCC(=O)NC2=O)C4=O)C3)C1 (stereo not drawn) [Compound D153] | < 10 nM
40 | COc1cc(-c2cn(C)c(=O)c3cnc(N(C)C)cc23)cc(OC)c1CN1CCN(c2ccn3c(=O)n(C4CCC(=O)NC4=O)nc3c2)CC1 (stereo not drawn) [Compound D154] | < 10 nM
41 | COc1cc(-c2cn(C)c(=O)c3cnc(N(C)C)cc23)cc(OC)c1CN1CCN(CC2CCN(c3ccc4c(c3)C(=O)N(C3CCC(=O)NC3=O)C4=O)CC2)CC1 (stereo not drawn) [Compound D155] | < 10 nM
42 | CNc1cc2c(=O)n(C)cc(-c3cc(OC)c(CN(C)CC45CC(C(=O)NCCCCCNc6cccc7c6C(=O)N(C6CCC(=O)NC6=O)C7=O)(C4)C5)c(OC)c3)c2cn1 (stereo not drawn) [Compound D172] | 10 to 100 nM

— patent US12391686B2, “Compounds and uses thereof” (Foghorn Therapeutics Inc., priority 2019, dated 2025)
